What is called kinetic solubility is solubility judged after dilution from a stock solution rather than from solid.

SMILES strings stand for the structures. Values after ≈ are worked out from the molar mass of the structure shown.

The conditions of the data set: buffer; pH 7.4; 200.0 µM.
`CCCCN(C)C1CCN(C(=S)Nc2ccc(OC)cc2)CC1`: the solubility (kinetic) was > 50.3 µg/mL.
For the compound `Nc1ccccc1Sc1c[nH]c2ccccc12`, the kinetic solubility came to 27.8 µg/mL (≈ 116 µM).
`O=C(CN1CCCC1)Nc1c(C(=O)C2CC2)oc2ccccc12` had a kinetic solubility of 31.8 µg/mL (≈ 102 µM).
For `CCc1sc(C(=O)Nc2ccccc2N2CCOCC2)cc1C` the value was 2.5 µg/mL (≈ 7.57 µM).
In turn, `Cc1cccc(N2CCN(C(=O)c3ccc(S(=O)(=O)N(C)c4ccccc4)cc3)CC2)c1C` yielded a solubility (kinetic) of 6.7 µg/mL (≈ 14.5 µM).
`Cc1ccc(CC2C(=O)N(c3ccc(F)cc3)C(=O)C2C)cc1` (stereo unspecified): the kinetic solubility amounted to 3.3 µg/mL (≈ 10.6 µM).
For `COC(=O)c1cc(S(=O)(=O)NCc2cccs2)c[nH]1` the value was > 45.1 µg/mL; for `CC(=O)Nc1nc(C)c(C(C)(C)C)s1`, > 31.8 µg/mL.
For `CCCCC(C(=O)O)C(C)CC(=O)Nc1nccs1` (stereo unspecified), the kinetic solubility is > 42.7 µg/mL.
With `CCOc1ccc(S(=O)(=O)NCc2ccc3c(c2)OCO3)cc1` the figure was 10.9 µg/mL (≈ 32.5 µM); with `Cc1ccc(S(=O)(=O)N2CCC[C@H]2C(=O)Nc2ccc(F)cc2C)cc1`, > 56.5 µg/mL.
Take `CCC1(C)Cc2ccccc2-c2nc(SCC(N)=O)[nH]c(=O)c21` (stereo unspecified): the kinetic solubility was 0.8 µg/mL (≈ 2.43 µM).
`O=C(NC1CCCC1)c1cc(-c2ccccc2Cl)on1` returned a kinetic solubility of 2.2 µg/mL (≈ 7.57 µM).
For `Cc1cccc(NC(=O)NC2CCCCCCC2)c1` the value was 5.2 µg/mL (≈ 20 µM).
Turning to `COc1ccc(C(=O)NCCCN2CCOCC2)cc1`, the solubility (kinetic) is > 41.8 µg/mL.
On to `O=C(COC(=O)CCC(=O)c1ccc(F)cc1)NC1CCCCC1`, for which the solubility (kinetic) was > 50.3 µg/mL.
Regarding `O=C(CNC(=O)c1ccccc1F)NC1=NCCS1`, the kinetic solubility is > 42.2 µg/mL.
For `CC(O)CNCCOc1ccccc1-c1ccccc1.O=C(O)C(=O)O` (stereo unspecified), the solubility (kinetic) was > 54.2 µg/mL.
With `COc1cccc(N=Cc2c(O)c3ccccc3oc2=O)c1` the figure was 15.5 µg/mL (≈ 52.5 µM).
In the case of `COc1ccc(CN=C(N)N=C(N)N)cc1Cl.Cl`, the solubility (kinetic) was > 43.8 µg/mL.
With `COc1cc2c(cc1OC)CN(C(=O)c1cc(Cl)nc(Cl)c1)CC2`, the kinetic solubility turned out to be 27 µg/mL (≈ 73.5 µM).
For `CC1CCN(C(=O)COc2cccc3c2CCN(C)C3=O)CC1`, the kinetic solubility is > 47.5 µg/mL.
For `CN(Cc1ccccn1)Cc1nc(-c2ccc(Cl)cc2)no1` the value was 35.5 µg/mL (≈ 113 µM).
In turn, `COc1ccc(Br)cc1CN(C)C(=O)C1CC(=O)N(C2CCCC2)C1` (stereo unspecified) gave a solubility (kinetic) of 54.2 µg/mL (≈ 132 µM).
For `CN1CCN(c2nc3c(c(=O)[nH]c(=O)n3C)n2Cc2ccccc2)CC1` the value was 52.7 µg/mL (≈ 149 µM).
Take `COC(=O)c1sccc1NC(=O)c1ccc(C#N)cc1`: the kinetic solubility worked out at 1.8 µg/mL (≈ 6.29 µM).
In the case of `O=C(/C=C/c1ccccc1)Nc1cccnc1`, the kinetic solubility was > 33.6 µg/mL.
`Cc1ccc(SCC(=O)NCc2ccccc2C)cc1` registered a kinetic solubility of 35.7 µg/mL (≈ 125 µM).
For `Cc1ccc(NC(=O)Cc2ccc(Cl)cc2)nc1` the value was 28.5 µg/mL (≈ 109 µM).
`CSc1nc2nc3c(cc2c(=O)n1-c1ccc(C)cc1)COC(C)(C)C3` yielded a solubility (kinetic) of 2.3 µg/mL (≈ 6.26 µM).
With `O=C(Nc1ccc(F)cc1F)NC1CCCCCCC1` the figure was 1.9 µg/mL (≈ 6.73 µM).
With `Cn1c(NC2CCCCC2)c(N=O)c(=O)n(C)c1=O`, the solubility (kinetic) is > 39.9 µg/mL.
Regarding `Cn1cccc1CNC(=S)Nc1ccccc1F`, the solubility (kinetic) was > 39.5 µg/mL.
With `S=C(NCC1CCCO1)NC1CCCCC1` (stereo unspecified) the figure was > 36.4 µg/mL; with `Cc1ccc(CNC(=O)COC(=O)C2CCC2)cc1`, > 39.2 µg/mL.
With `Cc1csc(SC(C)C(=O)Nc2ccccc2C)n1` (stereo unspecified) the figure was > 43.9 µg/mL; with `COc1cccc(NC(=O)CN(C)C(=O)C2CC3C=CC2C3)c1` (stereo unspecified), > 47.2 µg/mL.
With `Cc1cc(Cl)ccc1OC(C)C(=O)NC(C)C1CCCO1` (stereo unspecified) the figure was > 46.8 µg/mL; with `CC1CC(=O)N(c2ccc(C(C)C)cc2)C(=O)C1`, 35 µg/mL (≈ 143 µM).
In the case of `CC(=O)NC(CC(=O)NCc1ccncc1)c1ccccc1` (stereo unspecified), the solubility (kinetic) was > 44.6 µg/mL.
With `Cc1ccc2c(c1)sc(=NC(=O)c1cccs1)n2C` the figure was < 0.3 µg/mL; with `Cc1ccc(C(=O)Nc2cccc3ccccc23)cc1`, 0.8 µg/mL (≈ 3.06 µM).
For `O=C(Nc1cccc(F)c1)c1ccc2ncsc2c1` the value was 39.8 µg/mL (≈ 146 µM); for `Cc1cc(N2C(=O)c3ccccc3C2=O)n(C)n1`, > 36.2 µg/mL.
For `Clc1nc(NC2CCCC2)nc(N2CCOCC2)n1`, the solubility (kinetic) came to 5.1 µg/mL (≈ 18 µM).
The compound `Cc1ccc(C(=O)OCC(=O)NC(=O)c2ccccc2)o1` had a kinetic solubility of 32.9 µg/mL (≈ 115 µM).
With `Brc1ccccc1OCCN1CCOCC1.O=C(O)C(=O)O` the figure was > 56.4 µg/mL.
For `O=C(O)c1cccc2c1/C(=N/O)c1ccccc1-2` the value was > 35.9 µg/mL; for `COCCNc1oc(/C=C/c2ccccc2)nc1C#N`, > 40.4 µg/mL.
For `CC(=O)Nc1ccc2c(c1)CCCC2` the value was > 28.4 µg/mL; for `CNc1nc(-c2ccccc2)cc(C)c1S(C)(=O)=O`, 22.8 µg/mL (≈ 82.5 µM).
In the case of `CCc1ccc(/C=C\C(=O)N2CCCC2)cc1`, the kinetic solubility stood at 28.3 µg/mL (≈ 123 µM).
For `Cc1noc(C)c1-c1nc(CS(=O)(=O)c2ccc(Cl)cc2)no1` the value was 3.8 µg/mL (≈ 10.7 µM); for `O=C(O)C1=C(Nc2ccccc2)OCC1=O`, > 32.9 µg/mL; for `O=C(NCc1ccncc1)Nc1cccc([N+](=O)[O-])c1`, > 40.8 µg/mL.
`O=C(CN1c2cccc3cccc(c23)S1(=O)=O)NCCc1ccc(F)cc1`: the solubility (kinetic) was determined as 1.9 µg/mL (≈ 4.94 µM).
With `O=C(COC(=O)c1ccccc1O)NCCCc1ccccc1` the figure was 5 µg/mL (≈ 16 µM).
For `N/C(=N\OC(=O)c1ccc(Cl)c(Cl)c1)c1cccc(CSc2ccccn2)c1` the value was 0.9 µg/mL (≈ 2.08 µM).
For `COc1ccc2c(CC(=O)Nc3nccs3)coc2c1` the value was 7 µg/mL (≈ 24.3 µM).
In the case of `O=c1[nH]c(=S)n(-c2ccccc2)c(O)c1C=NCCN1CCNCC1`, the kinetic solubility was > 53.9 µg/mL.
With `O=C1c2cccc3cccc(c23)C(=O)N1c1ccc(O)cc1` the figure was < 0.6 µg/mL; with `Cc1nn(CC(=O)NCCc2ccccc2)c(=O)c2cccn12`, > 46.6 µg/mL; with `COc1ccc(NC(=O)c2ccco2)c2ccccc12`, > 40.1 µg/mL.
With `COC(=O)c1ccc(C(=O)O)nc1` the figure was 21.5 µg/mL (≈ 119 µM); with `COc1ccc(NC(=O)c2ccc3ccccc3c2OC)cc1`, < 0.7 µg/mL; with `COc1cc(CC(=O)OCC(=O)N(C)C2CCCCC2)cc(OC)c1OC`, 52.4 µg/mL (≈ 138 µM).
`O=C(Nc1ccc(F)cc1)c1nc[nH]c1C(=O)O`: the kinetic solubility was > 37.4 µg/mL.
For `Oc1ccc2c(c1)c1c3n2CCNC3CCC1` (stereo unspecified) the value was 31.3 µg/mL (≈ 137 µM); for `COc1ccc(C)cc1NC(=O)CN1C(=O)COc2ccc(C)cc21`, 2.1 µg/mL (≈ 6.17 µM); for `Nc1cc(=O)[nH]c(=O)n1CCc1ccccc1`, > 34.7 µg/mL.
Turning to `COC(CNc1nc(SC)nc2sc3c(c12)CCN(C)C3)OC`, the solubility (kinetic) is 52.4 µg/mL (≈ 148 µM).
For `CN(Cc1ccccc1)S(=O)(=O)c1ccc(Cl)c(C(=O)O)c1` the value was > 51 µg/mL; for `O=c1ccc2c([nH]1)CCCCCCCCCC2`, 5.2 µg/mL (≈ 22.3 µM); for `CCOC(=O)c1c(C)n(Cc2ccccc2)c2ccc(O)cc12`, < 0.7 µg/mL.
`COC(=O)c1[nH]c2ccccc2c1Sc1ccccc1` had a kinetic solubility of 0.9 µg/mL (≈ 3.18 µM).
For `O=[N+]([O-])c1cccc(-c2cc3ccccc3[nH]2)c1` the value was < 0.3 µg/mL.
As for `CCCNC(=O)c1ccccc1SCc1c(C)noc1C`, the kinetic solubility was > 45.7 µg/mL.
The compound `CC(C)(C)NC(=O)COC(=O)c1ccccc1C(=O)c1ccccc1` registered a kinetic solubility of 43.4 µg/mL (≈ 128 µM).
With `O=C1/C(=C/c2ccccn2)SC(=S)N1c1cccc(O)c1` the figure was 0.4 µg/mL (≈ 1.27 µM); with `Cn1ccnc1C(=O)c1ccc(N)cc1`, > 30.2 µg/mL; with `O=C(COC(=O)C1CC1)NC(=O)c1ccccc1`, > 37.1 µg/mL.
As to `CC(C)N(Cc1ccccc1)C(=O)c1cccs1`, the kinetic solubility is > 38.9 µg/mL.
With `Cl.NC(CO)C12CC3CC(CC(C3)C1)C2` (stereo unspecified) the figure was > 34.8 µg/mL; with `Nc1nnc(SCC(=O)NC2CCCCCC2)s1`, > 43 µg/mL.
`COc1ccccc1CN(C)C(=O)CNC(=O)c1cccc(Cl)c1` had a solubility (kinetic) of 50.8 µg/mL (≈ 146 µM).
With `O=C1CSC(c2ccncc2)N1Cc1ccc(F)cc1` (stereo unspecified) the figure was > 43.3 µg/mL; with `O=C(COC(=O)c1ccc([N+](=O)[O-])cc1)NC1CCCC1`, 21.2 µg/mL (≈ 72.5 µM); with `CN(C)c1cccc(C(=O)NCCCSc2ccccc2)c1`, 17.9 µg/mL (≈ 56.9 µM).
Take `NC(=O)C1CCN(C(=O)c2cc(-c3ccccc3Cl)nc3ccccc23)CC1`: the kinetic solubility was > 59.1 µg/mL.
With `O=C(NCc1ccc2c(c1)OCO2)c1ccco1` the figure was > 36.8 µg/mL.
For `O=C(Nc1cccc2ccccc12)NC1Cc2ccccc2C1` the value was < 0.3 µg/mL.
Take `Cc1ccc(C(=O)NC(C)c2ccc(-n3ccnc3)cc2)cc1` (stereo unspecified): the solubility (kinetic) was > 45.8 µg/mL.
On to `COc1ccc(NC(=O)CN(c2ccccc2OC)S(=O)(=O)c2cccs2)cc1Cl`, for which the solubility (kinetic) came to 2.9 µg/mL (≈ 6.21 µM).
For `COc1ccc(NC(=O)c2cc(S(=O)(=O)N3CCOCC3)ccc2C)cc1S(=O)(=O)N1CCOCC1` the value was > 80.9 µg/mL; for `CC(C)N1CCN(CCCc2ccccc2)CC1CCO` (stereo unspecified), > 43.6 µg/mL.
With `Cn1cnnc1SCC(=O)Nc1ccc(F)cc1` the figure was > 39.9 µg/mL.
For `N#CC1(NC(=O)COc2ccccc2[N+](=O)[O-])CCCCC1`, the kinetic solubility was > 45.5 µg/mL.
With `Cc1cc(=O)[nH]c(SCc2cccc3cccnc23)n1`, the solubility (kinetic) came to 13.4 µg/mL (≈ 47.3 µM).
`COc1ccc2nc3c(nc2c1)CCCC3`: the solubility (kinetic) is > 32.1 µg/mL.
For `CC(=O)N(CCS(=O)(=O)c1ccc(Cl)cc1)Cc1cccs1` the value was 39.9 µg/mL (≈ 111 µM); for `Cc1c(C(=O)Nc2cccc(S(=O)(=O)N3CCOCC3)c2)oc2ccc(Br)cc12`, 4.5 µg/mL (≈ 9.39 µM); for `Cc1cccc(NC(=O)c2ccc3c(c2)C(=O)N(c2ccccn2)C3=O)c1C`, 2.2 µg/mL (≈ 5.92 µM).
`O=C(Nc1ccc(Cl)cc1)C1CCCCN1S(=O)(=O)c1ccccc1` (stereo unspecified) returned a kinetic solubility of 24.7 µg/mL (≈ 65.2 µM).
Consider `Cc1cc(C)cc(Oc2coc3c(CN(C)C)c(O)ccc3c2=O)c1`, for which the solubility (kinetic) was > 50.9 µg/mL.
For `COc1ccc(CCNC(=O)C2CCN(C(=O)c3ccccc3)CC2)cc1` the value was 49.2 µg/mL (≈ 134 µM); for `CC(C)(C)Nc1nc2cc([N+](=O)[O-])ccc2o1`, 10.9 µg/mL (≈ 46.3 µM).

For the origin of these results see PubChem BioAssay AID1996.
